Test results: PubChem BioAssay AID1963426 (Molecular Pharmacology Branch, DTP, NCI, 2024)

Tested on: 186277-243-T-J2-PDC complex spheroid growth, % test/control
Test: Anticancer human tumor 186277-243-T-J2-PDC patient-derived colon adenocarcinoma cell line growth inhibition [Asc]
Conditions: for IC50: curve of first compound; for viability, T/C: stronger effect = lower value
How it was run: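 Complex spheroids combining tumor cells with HUVEC endothelial cells and human MSCs, at 37 degrees C, 5% CO2; agents tested alone or combined, half-log dilutions from at or near clinical Cmax, or 10 microM if Cmax unknown.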

[1] = second compound 0.1 µM, first compound 0.0316 µM
[2] = second compound 0.1 µM, first compound 0.1 µM
[3] = second compound 0.1 µM, first compound 0.316 µM
[4] = second compound 0.1 µM, first compound 1 µM
[5] = second compound 0.1 µM, first compound 3.16 µM
[6] = second compound 0.1 µM, first compound 10 µM
[7] = second compound 0.316 µM, first compound 0.0316 µM
[8] = second compound 0.316 µM, first compound 0.1 µM
[9] = second compound 0.316 µM, first compound 0.316 µM
[10] = second compound 0.316 µM, first compound 1 µM
[11] = second compound 0.316 µM, first compound 3.16 µM
[12] = second compound 0.316 µM, first compound 10 µM
[13] = second compound 1 µM, first compound 0.0316 µM
[14] = second compound 1 µM, first compound 0.1 µM
[15] = second compound 1 µM, first compound 0.316 µM
[16] = second compound 1 µM, first compound 1 µM
[17] = second compound 1 µM, first compound 3.16 µM
[18] = second compound 1 µM, first compound 10 µM
[19] = second compound 3.16 µM, first compound 0.0316 µM
[20] = second compound 3.16 µM, first compound 0.1 µM
[21] = second compound 3.16 µM, first compound 0.316 µM
[22] = second compound 3.16 µM, first compound 1 µM
[23] = second compound 3.16 µM, first compound 3.16 µM
[24] = second compound 3.16 µM, first compound 10 µM
[25] = second compound 10 µM, first compound 0.0316 µM
[26] = second compound 10 µM, first compound 0.1 µM
[27] = second compound 10 µM, first compound 0.316 µM
[28] = second compound 10 µM, first compound 1 µM
[29] = second compound 10 µM, first compound 3.16 µM
[30] = second compound 10 µM, first compound 10 µM
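Note: spheroids exposed to agents for 7 days.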
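Throughout, for viability, T/C: 100% = DMSO vehicle control wells.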

C=C(F)C(=O)N1CCN(c2nc(OCC3CCCN3C)nc3c2CCN(c2cccc4cccc(Cl)c24)C3)CC1CC#N (stereo not given) + Cc1c(S(C)(=O)=O)c(-c2cc(F)cc(N3CCN(c4ccc(NS(=O)(=O)c5ccc(NC(CCN6CCC(C(=O)OCCCP(=O)(O)O)CC6)CSc6ccccc6)c(S(=O)(=O)C(F)(F)F)c5)cc4)CC3)c2)c(-c2ccc(Cl)cc2)n1C(C)C
IC50 (second compound 0.1 µM): 5550 nM | IC50 (second compound 0.316 µM): 4400 nM | IC50 (second compound 1 µM): 2590 nM | IC50 (second compound 3.16 µM): 2180 nM | IC50 (second compound 10 µM): 2370 nM | viability, T/C [1]: 109% | viability, T/C [2]: 111% | viability, T/C [3]: 110% | viability, T/C [4]: 110% | viability, T/C [5]: 97.2% | viability, T/C [6]: 0.54% | viability, T/C [7]: 106% | viability, T/C [8]: 109% | viability, T/C [9]: 108% | viability, T/C [10]: 111% | viability, T/C [11]: 70% | viability, T/C [12]: 0.32% | viability, T/C [13]: 115% | viability, T/C [14]: 119% | viability, T/C [15]: 107% | viability, T/C [16]: 124% | viability, T/C [17]: 36.1% | viability, T/C [18]: 0.51% | viability, T/C [19]: 105% | viability, T/C [20]: 108% | viability, T/C [21]: 112% | viability, T/C [22]: 104% | viability, T/C [23]: 24.2% | viability, T/C [24]: 0.16% | viability, T/C [25]: 120% | viability, T/C [26]: 106% | viability, T/C [27]: 116% | viability, T/C [28]: 107% | viability, T/C [29]: 31.2% | viability, T/C [30]: 0.25%

C=CC(=O)N1CCN(c2nc(=O)n(-c3c(C)ccnc3C(C)C)c3nc(-c4c(O)cccc4F)c(F)cc23)C(C)C1 (stereo not given) + Cc1c(S(C)(=O)=O)c(-c2cc(F)cc(N3CCN(c4ccc(NS(=O)(=O)c5ccc(NC(CCN6CCC(C(=O)OCCCP(=O)(O)O)CC6)CSc6ccccc6)c(S(=O)(=O)C(F)(F)F)c5)cc4)CC3)c2)c(-c2ccc(Cl)cc2)n1C(C)C
IC50 (second compound 0.1 µM): > 10000 nM | IC50 (second compound 0.316 µM): > 10000 nM | IC50 (second compound 1 µM): > 10000 nM | IC50 (second compound 3.16 µM): > 10000 nM | IC50 (second compound 10 µM): > 10000 nM | viability, T/C [1]: 120% | viability, T/C [2]: 105% | viability, T/C [3]: 105% | viability, T/C [4]: 108% | viability, T/C [5]: 116% | viability, T/C [6]: 113% | viability, T/C [7]: 111% | viability, T/C [8]: 104% | viability, T/C [9]: 104% | viability, T/C [10]: 104% | viability, T/C [11]: 119% | viability, T/C [12]: 116% | viability, T/C [13]: 128% | viability, T/C [14]: 115% | viability, T/C [15]: 100% | viability, T/C [16]: 116% | viability, T/C [17]: 119% | viability, T/C [18]: 119% | viability, T/C [19]: 105% | viability, T/C [20]: 123% | viability, T/C [21]: 115% | viability, T/C [22]: 111% | viability, T/C [23]: 116% | viability, T/C [24]: 116% | viability, T/C [25]: 102% | viability, T/C [26]: 109% | viability, T/C [27]: 102% | viability, T/C [28]: 119% | viability, T/C [29]: 104% | viability, T/C [30]: 110%

CCN1C(C(=O)NC23CCC(C(=O)O)(CC2)CC3)C(c2cccc(Cl)c2F)C2(C(=O)Nc3cc(Cl)ccc32)C12CCCCC2 (stereo not given) + Cc1c(S(C)(=O)=O)c(-c2cc(F)cc(N3CCN(c4ccc(NS(=O)(=O)c5ccc(NC(CCN6CCC(C(=O)OCCCP(=O)(O)O)CC6)CSc6ccccc6)c(S(=O)(=O)C(F)(F)F)c5)cc4)CC3)c2)c(-c2ccc(Cl)cc2)n1C(C)C
IC50 (second compound 0.1 µM): 746 nM | IC50 (second compound 0.316 µM): 397 nM | IC50 (second compound 1 µM): 202 nM | IC50 (second compound 3.16 µM): 110 nM | IC50 (second compound 10 µM): 97.5 nM | viability, T/C (second compound 0.1 µM, first compound 0.00949 µM): 103% | viability, T/C (second compound 0.1 µM, first compound 0.03 µM): 137% | viability, T/C (second compound 0.1 µM, first compound 0.0949 µM): 91.4% | viability, T/C (second compound 0.1 µM, first compound 0.3 µM): 73.6% | viability, T/C (second compound 0.1 µM, first compound 0.949 µM): 47.5% | viability, T/C (second compound 0.1 µM, first compound 3 µM): 14% | viability, T/C (second compound 0.316 µM, first compound 0.00949 µM): 111% | viability, T/C (second compound 0.316 µM, first compound 0.03 µM): 121% | viability, T/C (second compound 0.316 µM, first compound 0.0949 µM): 82.6% | viability, T/C (second compound 0.316 µM, first compound 0.3 µM): 59.3% | viability, T/C (second compound 0.316 µM, first compound 0.949 µM): 26.1% | viability, T/C (second compound 0.316 µM, first compound 3 µM): 1.1% | viability, T/C (second compound 1 µM, first compound 0.00949 µM): 107% | viability, T/C (second compound 1 µM, first compound 0.03 µM): 126% | viability, T/C (second compound 1 µM, first compound 0.0949 µM): 72.7% | viability, T/C (second compound 1 µM, first compound 0.3 µM): 38.3% | viability, T/C (second compound 1 µM, first compound 0.949 µM): 8.6% | viability, T/C (second compound 1 µM, first compound 3 µM): 1.06% | viability, T/C (second compound 3.16 µM, first compound 0.00949 µM): 120% | viability, T/C (second compound 3.16 µM, first compound 0.03 µM): 103% | viability, T/C (second compound 3.16 µM, first compound 0.0949 µM): 52.5% | viability, T/C (second compound 3.16 µM, first compound 0.3 µM): 19.8% | viability, T/C (second compound 3.16 µM, first compound 0.949 µM): 2.56% | viability, T/C (second compound 3.16 µM, first compound 3 µM): 0.36% | viability, T/C (second compound 10 µM, first compound 0.00949 µM): 107% | viability, T/C (second compound 10 µM, first compound 0.03 µM): 110% | viability, T/C (second compound 10 µM, first compound 0.0949 µM): 49.7% | viability, T/C (second compound 10 µM, first compound 0.3 µM): 13.4% | viability, T/C (second compound 10 µM, first compound 0.949 µM): 3.44% | viability, T/C (second compound 10 µM, first compound 3 µM): 0.38%
